From PubChem BioAssay AID1549 (Sanford-Burnham Center for Chemical Genomics, 2009) come the findings set out here.

The source made the active and inactive calls. The rule behind the calls is not given here.

The term Kd denotes a measure of binding affinity in units of concentration.

The target of this assay is Influenza A virus M2 proton channel (A/TW/4845/1999 H1N1). The assay can be described thus: M2 proton channel binding, NMR based, influenza A virus H1N1 strain (AID 1549). Particulars: NMR binding screen, M2 protein.
In the case of `Nc1ccc2c(c1)CCCC2=O`, the Kd was > 4 mM (inactive).

In the case of `COc1cc(C2NC(=S)NC(C)=C2C(C)=O)ccc1O` (stereo not given), the Kd is > 4 mM (inactive). Take `CC(=O)Nc1cccc(N2C(=O)CCC2=O)c1`: the Kd was > 4 mM (inactive). As to `Nc1nc(-c2ccccc2)cc(=O)[nH]1`, the Kd was > 4 mM (inactive). The figure for `C=C1CCC2[C@](C)(CO)[C@H](O)CC[C@@]2(C)[C@@H]1C/C=C1/C(=O)OC[C@H]1O` (stereo not given in full) is > 4 mM (inactive); for `Nc1cc(F)ccc1-n1ccnc1` it is > 4 mM (inactive).

Take `CNCc1ccco1`: the Kd is > 4 mM (inactive). For the compound `C[C@H]1OC(O[C@H]2[C@@H](O)CC(O[C@H]3[C@@H](O)C[C@H](O[C@H]4CC[C@]5(C)C6CC[C@]7(C)[C@@H](C8=CC(=O)OC8)[C@@H](O)C[C@]7(O)[C@@H]6CC[C@@H]5C4)O[C@@H]3C)O[C@@H]2C)C[C@H](O)C1O` (stereo not given in full), the Kd was > 4 mM (inactive). In the case of `CNC(=O)C(=O)Nc1c(C)cccc1C`, the Kd is > 4 mM (inactive). As for `OCc1ccc2c(c1)CCO2`, the Kd was > 4 mM (inactive). The figure for `COc1cc2c(cc1OC)-c1cc3ccc(OC)c(OC)c3c[n+]1CC2` is > 4 mM (inactive); for `Cn1ccnc1C(O)c1ccccc1` (stereo not given) it is > 4 mM (inactive). Turning to `CC(=O)Nc1sccc1C(N)=O`, the Kd was > 4 mM (inactive).

In the case of `COc1cnn(Cc2ccccc2)c(=O)c1Cl`, the Kd was > 4 mM (inactive). On to `COCC(=O)N1CCCc2ccccc21`, for which the Kd is > 4 mM (inactive). Turning to `NC(=O)CSCc1c(Cl)cccc1Cl`, the Kd is > 4 mM (inactive). As for `OCC1CCN(c2ncccn2)CC1`, the Kd was > 4 mM (inactive). Take `NC(=O)c1c[nH]c2ccccc12`: the Kd was > 4 mM (inactive). As to `Cc1onc(-c2ccccc2)c1CN`, the Kd was > 4 mM (inactive). As to `COc1cc2c(cc1OC)[C@@H]1C(=O)c3ccc(OC)c(CC=C(C)C)c3O[C@@H]1CO2`, the Kd is > 4 mM (inactive). Turning to `OCc1ccc(Oc2ccccc2)nc1`, the Kd was > 4 mM (inactive). Regarding `CC(=O)N1CCN(c2ccc(N)cc2)CC1`, the Kd was > 4 mM (inactive). Turning to `O=C1CC(c2c[nH]c3ccccc23)C(=O)N1` (stereo not given), the Kd was > 4 mM (inactive). `COC(=O)c1noc(-c2ccc(OC)cc2)n1`: the Kd is > 4 mM (inactive).

For `Nc1nc(-c2ccc(F)c(F)c2)cs1`, the Kd was > 4 mM (inactive). Take `CC(=O)O[C@@H]1CC2C(C)(C)[C@H](O)C[C@H](O)[C@]2(C)C2CC[C@@]3(C)C(=CC(=O)O[C@H]3c3ccoc3)[C@@]21C` (stereo not given in full): the Kd is > 4 mM (inactive). As for `Cc1ccc(C(=O)Nc2nnc(-c3ccncc3)s2)o1`, the Kd was > 4 mM (inactive).

On to `O=C1NC(=S)NC(=O)C1=Cc1cccs1`, for which the Kd is > 4 mM (inactive). As for `c1ccc(Cc2nnc3sc(-c4ccccn4)nn23)cc1`, the Kd is > 4 mM (inactive). `OCC1CCCCCN1` (stereo not given): the Kd is > 4 mM (inactive). Consider `S=c1[nH]nc(-c2cccnc2)n1Cc1ccccc1`, for which the Kd is > 4 mM (inactive). Turning to `COC(=O)Nc1c(C)n(C)n(-c2ccccc2)c1=O`, the Kd was > 4 mM (inactive).

For `c1ccc(-c2csc(Nc3cccnc3)n2)nc1`, the Kd was > 4 mM (inactive). For the compound `NNC(=O)c1ccccc1-n1cccc1`, the Kd is > 4 mM (inactive).

Regarding `CC(=O)C1CCC2C3CCC4C[C@H](O)CCC4(C)C3C[C@H](O)C12C` (stereo not given in full), the Kd is > 4 mM (inactive).

As to `O=C(c1ccccc1)N1CCNCC1`, the Kd was > 4 mM (inactive). For `O=c1cc(-c2ccccc2)oc2c(O)c(O)ccc12`, the Kd was > 4 mM (inactive).

For the compound `CN1CCN(C2CCN(Cc3ccccc3)CC2)CC1`, the Kd was > 4 mM (inactive).

As for `CC1=CC(C)C(C(=O)O)C(C(=O)N2CCN(C)CC2)C1` (stereo not given), the Kd is > 4 mM (inactive).

For `Cc1ccc(C2NS(=O)(=O)N=C2N)cc1` (stereo not given), the Kd is > 4 mM (inactive).

As for `CCOc1ccc(C(=O)c2ccc(OC)c(O)c2O)cc1`, the Kd is > 4 mM (inactive). Regarding `CC(C)c1c(O)c(-c2cc3c(c(C(C)C)c2O)CCC2C(C)(C)CCC[C@]32C)cc2c1CCC1C(C)(C)CCC[C@]21C` (stereo not given in full), the Kd is > 4 mM (inactive).

Turning to `O=C(NCc1cccs1)c1nc2ncccn2n1`, the Kd is > 4 mM (inactive). Then `O=c1ccn([C@@H]2O[C@H](COP(=O)(O)OP(=O)(O)OP(=O)(O)O)[C@@H](O)[C@H]2O)c(=O)[nH]1`, with > 4 mM (inactive). As for `Cc1noc(C)c1C(=O)N1CCC2(CC1)OCCO2`, the Kd is > 4 mM (inactive). In the case of `Cn1nc(C(=O)NCc2cccnc2)c2ccccc2c1=O`, the Kd is > 4 mM (inactive). Take `Cc1cccc(NC(=O)CN2C(=O)CNC2=O)c1`: the Kd is > 4 mM (inactive). Turning to `CC(C)=CC1C(C(=O)O)C1(C)C` (stereo not given), the Kd was > 4 mM (inactive). For the compound `NC(=O)NC1NC(=O)NC1=O` (stereo not given), the Kd is > 4 mM (inactive). For `Cc1ccc(C(=O)N2CCC(C(N)=O)CC2)c(Cl)c1`, the Kd was > 4 mM (inactive). Consider `Cc1ccccc1NC(=O)N1CCOCC1`, for which the Kd was > 4 mM (inactive). `O=c1cc(-c2ccccc2)oc2cc(O)cc(O)c12`: the Kd was > 4 mM (inactive).

For the compound `Cc1cc(C(=O)NCc2cccnc2)cs1`, the Kd is > 4 mM (inactive). Consider `NCc1ccc2sccc2c1`, for which the Kd was > 4 mM (inactive). For the compound `Cc1ccccc1NC(=O)/C=C\C(N)=O`, the Kd is > 4 mM (inactive). Turning to `O=C(NS(=O)(=O)c1ccccc1)c1ccccc1F`, the Kd was > 4 mM (inactive). `N/N=C/c1cccnc1`: the Kd was > 4 mM (inactive).

Take `O=c1[nH]cc(NC(=S)N2CCOCC2)c(=O)[nH]1`: the Kd is > 4 mM (inactive). The figure for `COC1C(O)C(O)C(O)[C@@H](O)C1O` (stereo not given in full) is > 4 mM (inactive); for `O=C(O)c1cccc2c1OCCO2` it is > 4 mM (inactive). In the case of `Cc1cc(C(=O)N2CCN(c3ccccn3)CC2)c(C)o1`, the Kd is > 4 mM (inactive). Consider `Cc1nc2nc(Cc3ccccc3)nn2c(C)c1Cl`, for which the Kd is > 4 mM (inactive). Consider `CCC(CCC(C)[C@H]1CCC2C3CC=C4C[C@@H](O)CC[C@]4(C)C3CC[C@@]21C)C(C)C` (stereo not given in full), for which the Kd is > 4 mM (inactive). `COC(=O)[C@@H]1OC(=O)C2OC23[C@@]1(C)CCC1[C@]2(C)C(C[C@@H](O)[C@]13C)C(C)(C)[C@H](OC(C)=O)C[C@@H]2OC(C)=O` (stereo not given in full): the Kd is > 4 mM (inactive). With `CC(=O)Nc1nc2c(s1)C(=O)NCCC2`, the Kd was > 4 mM (inactive). With `O=C(O)c1coc2c1C(=O)CCC2`, the Kd was > 4 mM (inactive). For `Cc1sc2nc3n(c(=O)c2c1C)CCCS3`, the Kd is > 4 mM (inactive). For the compound `COc1cc2c(c(OC)c1OC)-c1ccc(O)c(=O)cc1[C@@H](NC(C)=O)CC2`, the Kd was > 4 mM (inactive). For `COc1cc2c(cc1-c1coc3c4c(c(OC)cc3c1=O)OC(C)(C)C=C4)OCO2`, the Kd is > 4 mM (inactive). The figure for `Cc1cc(C(=O)Nc2sc(C)c(C)c2C#N)no1` is > 4 mM (inactive); for `c1csc(-c2nn[nH]n2)c1` it is > 4 mM (inactive); for `CC1(C)C(=O)C=C[C@@]2(C)C1=C(O)C(=O)[C@]1(C)C2CC[C@@]2(C)[C@H](c3ccoc3)C[C@H]3O[C@]321` (stereo not given in full) it is > 4 mM (inactive). `CN1C(=O)c2ccc(C(=O)NCc3ccccc3)cc2C1=O`: the Kd is > 4 mM (inactive). Turning to `CC1CCCN(C/C(O)=C(\C#N)c2nc3ccccc3[nH]2)C1` (stereo not given), the Kd was > 4 mM (inactive). With `CC(C)c1ccc(NC(=O)C(N)=O)cc1`, the Kd was > 4 mM (inactive). On to `COC1C=CC23c4cc5c(cc4CN(CC2O)[C@@H]3C1)OCO5` (stereo not given in full), for which the Kd was > 4 mM (inactive). As to `O=C(O)CNC(=O)c1ccc([N+](=O)[O-])cc1`, the Kd was > 4 mM (inactive).

`NC(N)=NOCC[C@H](N)C(=O)O`: the Kd is > 4 mM (inactive).

Take `O=C(c1nc2ccccc2s1)N1CCSCC1`: the Kd was > 4 mM (inactive). Turning to `CC(=O)OC1CCC23C(=O)OC45CCC(C6=CC(=O)OC6)C4(C)CCC2C5CCC3(O)C1` (stereo not given), the Kd is > 4 mM (inactive). As for `NC1Cc2ccccc2C1`, the Kd is > 4 mM (inactive). Consider `COc1cc(OC)c(-c2nc3cnccc3n2C)cc1OC`, for which the Kd was > 4 mM (inactive).

For `Cn1c(=O)c2ccccc2n(Cc2ccccc2F)c1=O`, the Kd was > 4 mM (inactive). Then `COc1ccccc1NC(=O)c1cc[n+]([O-])cc1`, with > 4 mM (inactive). Turning to `Cc1cc(C)n2nc(N)nc2n1`, the Kd is > 4 mM (inactive). `Nc1nnc(SCc2ccc3c(c2)OCO3)s1`: the Kd is > 4 mM (inactive). For `CN(C)S(=O)(=O)NCc1ccc2c(c1)OCO2`, the Kd was > 4 mM (inactive).

As to `COc1ccc(-c2nc3nc(C)cc(C)n3n2)cc1`, the Kd was > 4 mM (inactive). For `Oc1ccccc1-c1nnco1`, the Kd was > 4 mM (inactive). Take `O=C(Nc1ccc(-c2nnco2)cc1)c1ccccc1`: the Kd is > 4 mM (inactive). As to `CN(C(N)=O)C1(C)CCS(=O)(=O)C1` (stereo not given), the Kd was > 4 mM (inactive). The figure for `CCc1ccc2oc(-c3cc(N)cc(C)c3O)nc2c1` is > 4 mM (inactive); for `C[C@H]1CCCC(=O)CCC/C=C/c2cc(O)cc(O)c2C(=O)O1` it is > 4 mM (inactive). With `N=Cc1c(O)n(-c2cccc(Cl)c2)c(=O)[nH]c1=O`, the Kd was > 4 mM (inactive).

Turning to `CCOC(=O)C1=C(O)CCN(C)C1`, the Kd is > 4 mM (inactive). Then `CC(=O)Oc1cccc2ccc(=O)[nH]c12`, with > 4 mM (inactive); and `COc1c(C(C)C)oc2cc3oc(=O)ccc3cc12`, with > 4 mM (inactive); and `O=C(Nc1cnccn1)c1cccc(C(F)(F)F)c1`, with > 4 mM (inactive). Consider `Cc1cc(NC(=O)CSc2ccnc(=O)[nH]2)no1`, for which the Kd was > 4 mM (inactive).

For `COc1c2ccoc2c(OC)c2oc(=O)ccc12`, the Kd is > 4 mM (inactive).
